Converted amounts (≈) assume the structure as drawn. Peptide text beside a SMILES is read from it.
Tests used:
[1] = test system: HEK293T cells; conditions: 24 h
Method: HEK293T cells were obtained from the American Type Culture Collection (CRL-3216). The cells were cultured in high-glucose Dulbecco’s modified Eagle’s medium supplemented with 1% penicillin and streptomycin (antibiotics) and 10% fetal bovine serum and grown at 37 °C in a humidified atmosphere containing 5% CO2.
One day before the experiment, an aliquot of 100 μl of the cells at 50,000 cells per ml was seeded into each well of the cell-treated 96-well plates used in the experiment (that is, 5,000 cells per well). […] After the incubation period, we performed the 3-(4,5-dimethylthiazol-2-yl)-2,5-diphenyltetrazolium bromide tetrazolium reduction assay (MTT assay)[53]. The MTT reagent was dissolved at 0.5 mg ml^−1 in medium without phenol red and was used to replace cell culture supernatants containing the peptides (100 μl per well), and the samples were incubated for 4 h at 37 °C in a humidified atmosphere containing 5% CO2 yielding the insoluble formazan salt. The resulting salts were then resuspended in hydrochloric acid (0.04 mol l^−1) in anhydrous isopropanol and quantified by spectrophotometric measurements of absorbance at 570 nm. All assays were done as three biological replicates.
Unless otherwise stated, all assays were performed in three independent biological replicates as indicated in each figure legend and Methods sections. The cytotoxic activities values were estimated using non-linear regression based on the range of concentrations screened and were shown as the values that cause lysis of 50% of the cells in the experiment. Two technical replicates were performed in the cytotoxicity assays within each of the three biological replicates.

[2] = test system: E. coli ATCC 11775; format: cell-based, Escherichia coli; conditions: ATCC 11775, 20 h
Source text: (§1) The following Gram-negative bacteria were used in our study: A. baumannii ATCC 19606, E. coli ATCC 11775, E. coli AIC221 (E. coli MG1655 phnE_2::FRT), E. coli AIC222 (E. coli MG1655 pmrA53 phnE_2::FRT (colistin resistant)), K. pneumoniae ATCC 13883, P. aeruginosa PAO1 and P. aeruginosa PA14. The following Gram-positive bacteria were also used in our study: S. aureus ATCC 12600, S. aureus ATCC BAA-1556 (methicillin-resistant strain), E. faecalis ATCC 700802 (vancomycin-resistant strain) and E. faecium ATCC 700221 (vancomycin-resistant strain). Bacteria were grown from frozen stocks and plated on Luria–Bertani (LB) or Pseudomonas isolation agar plates (P. aeruginosa strains) and incubated overnight at 37 °C. After the incubation period, a single colony was transferred to 5 ml of LB medium, and cultures were incubated overnight (16 h) at 37 °C. The following day, an inoculum was prepared by diluting the overnight cultures 1:100 in 5 ml of the respective media and incubating them at 37 °C until bacteria reached logarithmic phase (OD600 = 0.3–0.5).
(§2) The in vitro antimicrobial activity of the peptides was assessed by using the broth microdilution assay. […] Aqueous solutions of the peptides were added to the plate at concentrations ranging from 1 to 64 μmol l^−1. […] The optical density of the plates was measured at 600 nm using a spectrophotometer. All assays were done as three biological replicates.

[3] = test system: E. coli AIC221; format: cell-based, Escherichia coli; conditions: AIC221, 20 h
Source text: as §1, §2

[4] = test system: 11 clinically relevant bacterial pathogens; format: cell-based; conditions: Supplementary Dataset 2; against the 11 pathogens tested
Source text: as §1, §2

[5] = test system: A. baumannii ATCC 19606; format: cell-based, Acinetobacter baumannii; conditions: ATCC 19606, 20 h
Source text: as §1, §2

[6] = test system: K. pneumoniae ATCC 13883; format: cell-based, Klebsiella pneumoniae; conditions: ATCC 13883, 20 h
Source text: as §1, §2

[7] = test system: E. faecium ATCC 700221 (vancomycin-resistant strain); format: cell-based, Enterococcus faecium; conditions: ATCC 700221, 20 h
Source text: as §1, §2

[8] = test system: S. aureus ATCC BAA-1556 (methicillin-resistant strain); format: cell-based, Staphylococcus aureus; conditions: ATCC BAA-1556, 20 h
Source text: as §1, §2

| SMILES | CC50 [1] | Minimal inhibitory concentration, E. coli ATCC11775 [2] | Minimal inhibitory concentration, E. coli AIC221 [3] | Active or Inactive [4] | Minimal inhibitory concentration, A. baumannii ATCC19606 [5] | Minimal inhibitory concentration, K. pneumoniae ATCC133883 [6] | TI (therapeutic index) [1] | Minimal inhibitory concentration, E. faecium ATCC700221-VRE [7] | Minimal inhibitory concentration, S. aureus ATCC BAA-1556-MRSA [8] |
| --- | --- | --- | --- | --- | --- | --- | --- | --- | --- |
| CC[C@H](C)[C@H](NC(=O)[C@H](Cc1ccccc1)NC(=O)[C@@H](N)CCCCN)C(=O)N[C@@H](CC(C)C)C(=O)N[C@@H](CC(N)=O)C(=O)N[C@@H](Cc1ccccc1)C(=O)N[C@@H](CCCCN)C(=O)N[C@H](C(=O)N1CCC[C@H]1C(=O)N[C@H](C(=O)N[C@@H](CO)C(=O)N[C@@H](Cc1ccccc1)C(=O)N[C@@H](CCCCN)C(=O)O)[C@@H](C)CC)[C@@H](C)CC [Pinguinusin-1] (H-KFILNFKIPISFK-OH; N-terminus and C-terminus assumed) | > 128 µM | 16 µM (≈ 25.5 µg/mL) | 4 µM (≈ 6.38 µg/mL) | Active | 32 µM (≈ 51 µg/mL) | 16 µM (≈ 25.5 µg/mL) | – | – | – |
| CC[C@H](C)[C@H](NC(=O)[C@H](Cc1ccccc1)NC(=O)[C@H](CC(N)=O)NC(=O)[C@@H](NC(=O)[C@@H](NC(=O)[C@H](Cc1c[nH]cn1)NC(=O)[C@@H](N)CC(C)C)[C@@H](C)O)[C@@H](C)CC)C(=O)N[C@H](C(=O)N[C@@H](CCCCN)C(=O)N[C@@H](CO)C(=O)N[C@@H](CC(C)C)C(=O)N[C@@H](CC(C)C)C(=O)N[C@@H](CC(C)C)C(=O)O)[C@@H](C)CC [Bisonin-1] (H-LHTINFIIKSLLL-OH; N-terminus and C-terminus assumed) | > 128 µM | – | – | Active | – | – | > 8 | 16 µM (≈ 24.4 µg/mL) | – |
| CC[C@H](C)[C@H](NC(=O)[C@@H](NC(=O)[C@H](Cc1c[nH]c2ccccc12)NC(=O)[C@H](CCCCN)NC(=O)[C@@H](N)CCCCN)C(C)C)C(=O)N[C@@H](CCCCN)C(=O)N[C@@H](CO)C(=O)N[C@H](C(=O)N[C@H](C(=O)N[C@@H](Cc1ccccc1)C(=O)N[C@@H](Cc1ccccc1)C(=O)N[C@@H](CCCCN)C(=O)O)C(C)C)C(C)C [Hesperelin-2] (H-KKWVIKSVVFFK-OH; N-terminus and C-terminus assumed) | > 128 µM | – | 8 µM (≈ 12.1 µg/mL) | Active | 16 µM (≈ 24.1 µg/mL) | 32 µM (≈ 48.3 µg/mL) | – | 8 µM (≈ 12.1 µg/mL) | 16 µM (≈ 24.1 µg/mL) |
| CC[C@H](C)[C@H](NC(=O)[C@H](CCCCN)NC(=O)[C@@H](NC(=O)[C@H](Cc1c[nH]c2ccccc12)NC(=O)[C@H](CCCCN)NC(=O)[C@@H](N)CCCCN)[C@@H](C)O)C(=O)N[C@@H](Cc1ccc(O)cc1)C(=O)N[C@@H](CO)C(=O)N1CCC[C@H]1C(=O)N[C@@H](CC(C)C)C(=O)N[C@@H](CO)C(=O)N[C@@H](CC(C)C)C(=O)O [Smilodin-1] (H-KKWTKIYSPLSL-OH; N-terminus and C-terminus assumed) | > 128 µM | – | – | Active | – | 64 µM (≈ 93.7 µg/mL) | > 2 | – | – |
| CC[C@H](C)[C@H](NC(=O)[C@H](CCCCN)NC(=O)[C@@H](NC(=O)[C@H](Cc1c[nH]c2ccccc12)NC(=O)[C@@H](N)CCCCN)[C@@H](C)O)C(=O)N[C@@H](Cc1ccc(O)cc1)C(=O)N[C@@H](CC(C)C)C(=O)N1CCC[C@H]1C(=O)N[C@@H](CC(C)C)C(=O)N[C@@H](CC(C)C)C(=O)N[C@@H](CC(C)C)C(=O)N1CCC[C@H]1C(=O)N[C@@H](CC(C)C)C(=O)O [Bisonin-2] (H-KWTKIYLPLLLPL-OH; N-terminus and C-terminus assumed) | > 128 µM | – | – | Active | 8 µM (≈ 12.8 µg/mL) | – | – | 8 µM (≈ 12.8 µg/mL) | – |
| CC[C@H](C)[C@H](NC(=O)[C@H](CCCCN)NC(=O)[C@H](CO)NC(=O)[C@H](CC(N)=O)NC(=O)[C@H](Cc1ccccc1)NC(=O)[C@H](Cc1c[nH]cn1)NC(=O)[C@H](Cc1ccccc1)NC(=O)[C@@H](N)Cc1c[nH]c2ccccc12)C(=O)N[C@@H](CC(C)C)C(=O)N[C@@H](CC(C)C)C(=O)N[C@@H](CC(C)C)C(=O)N[C@H](C(=O)NCC(=O)N[C@@H](CC(C)C)C(=O)O)[C@@H](C)O [Mylodonin-1] (H-WFHFNSKILLLTGL-OH; N-terminus and C-terminus assumed) | > 128 µM | – | – | Active | – | – | > 16 | 8 µM (≈ 13.5 µg/mL) | – |
| CC[C@H](C)[C@H](NC(=O)[C@H](CC(C)C)NC(=O)[C@H](CCCNC(=N)N)NC(=O)[C@H](Cc1c[nH]c2ccccc12)NC(=O)[C@H](CC(C)C)NC(=O)[C@@H](NC(=O)[C@H](CCCNC(=N)N)NC(=O)[C@H](CCC(N)=O)NC(=O)[C@H](Cc1ccc(O)cc1)NC(=O)[C@H](CC(C)C)NC(=O)[C@@H](N)CCCCN)[C@@H](C)CC)C(=O)N[C@@H](CO)C(=O)N[C@@H](CCC(=O)O)C(=O)N[C@@H](CC(C)C)C(=O)O [Equusin-3] (H-KLYQRILWRLISEL-OH; N-terminus and C-terminus assumed) | > 128 µM | 16 µM (≈ 29.3 µg/mL) | 4 µM (≈ 7.32 µg/mL) | Active | – | – | – | 8 µM (≈ 14.6 µg/mL) | – |
| CC[C@H](C)[C@H](NC(=O)[C@H](CCCCN)NC(=O)[C@H](CC(C)C)NC(=O)[C@@H](NC(=O)[C@@H](N)CCCCN)[C@@H](C)O)C(=O)N[C@H](C(=O)N[C@@H](CCCNC(=N)N)C(=O)N[C@@H](CC(C)C)C(=O)N[C@@H](CC(C)C)C(=O)N[C@@H](Cc1ccccc1)C(=O)O)[C@@H](C)CC [Mammuthusin-3] (H-KTLKIIRLLF-OH; N-terminus and C-terminus assumed) | > 128 µM | – | 16 µM (≈ 19.9 µg/mL) | Active | 32 µM (≈ 39.8 µg/mL) | – | – | – | – |
| CC[C@H](C)[C@H](NC(=O)[C@@H](NC(=O)[C@H](CCSC)NC(=O)[C@@H](N)Cc1c[nH]c2ccccc12)[C@@H](C)O)C(=O)N[C@@H](Cc1c[nH]cn1)C(=O)N[C@@H](C)C(=O)N[C@@H](CC(C)C)C(=O)N[C@@H](CCCCN)C(=O)N[C@@H](CC(C)C)C(=O)N[C@@H](CO)C(=O)N[C@@H](CC(C)C)C(=O)N[C@@H](CO)C(=O)N[C@@H](Cc1ccccc1)C(=O)N[C@@H](CCCCN)C(=O)N[C@@H](CC(C)C)C(=O)O [Mammutin-1] (H-WMTIHALKLSLSFKL-OH; N-terminus and C-terminus assumed) | > 128 µM | – | – | Active | – | – | > 64 | 2 µM (≈ 3.58 µg/mL) | – |
| CC[C@H](C)[C@H](NC(=O)[C@H](CC(C)C)NC(=O)[C@@H](NC(=O)[C@H](CCCCN)NC(=O)[C@H](Cc1c[nH]c2ccccc12)NC(=O)[C@@H](NC(=O)[C@H](CCCCN)NC(=O)[C@H](CC(=O)O)NC(=O)[C@@H](NC(=O)[C@H](CC(C)C)NC(=O)[C@H](Cc1ccccc1)NC(=O)[C@H](C)NC(=O)CNC(=O)[C@@H](NC(=O)[C@@H](N)CCCCN)C(C)C)C(C)C)C(C)C)[C@@H](C)O)C(=O)O [Anomalopterin-2] (H-KVGAFLVDKVWKTLI-OH; N-terminus and C-terminus assumed) | > 128 µM | – | – | Active | 32 µM (≈ 54.9 µg/mL) | – | – | – | – |

Reference: publication PMC11310081, “Deep-learning-enabled antibiotic discovery through molecular de-extinction” (Nature Biomedical Engineering, 2024)
